From patent US6831080B2, “Cinnamide derivatives as KCNQ potassium channel modulators” (Bristol-Myers Squibb Company, priority 2001, dated 2004)

How the values were obtained:
mKCNQ2 channels = biological target: T1, mKCNQ2 channels (Mus musculus, UniProt Q9Z351); experiment: Whole-cell patch-clamp, HEK 293 stable cell line expressing mKCNQ2 channels; format: cell-based; conditions: HEK 293 mKCNQ2, Hill fit; for EC50: @ −40 mV
T1 construct: expressed in transfected cells
Experimental: Whole-cell patch-clamp recordings were made from an HEK 293 stable cell line expressing mKCNQ2 channels, maintained in culture for 1-2 days. Patch pipettes had initial resistances of 2.5-4 MΩ. Currents were recorded with an EPC-9 amplifier (HEKA, Lambrecht, Germany) controlled with software (Pulse, HEKA) run on a standard lab PC. Series resistance compensation was used during current recording, and set at 80%. The series resistance (R) and cell capacitance (C) were determined electronically by subtracting the capacitive currents at the onset and offset of a 5 mV voltage step. The cancellation of whole-cell capacitance transients was virtually complete in all cells. Analog current signals were low-pass filtered at 2.9 kHz using a four-pole Bessel filter −3 dB) and stored on a local network server computer at a sampling rate of […]. All recordings were performed at room temperature (20-22° C.). The pipette solution contained (mM): KCl, 150; CaCl2, 2.5; EGTA, 5; MgCl2, 1; HEPES, 10; pH to 7.3 with KOH, and Osmolality of 290-300 mOsm. The extracellular solution contained (mM): NaCl, 140; KCl, 2.5; CaCl2, 2.5; MgCl2, 1; glucose, 10; HEPES, 10; pH to 7.3 with NaOH, and Osmolality of 305-310 mOsm
Concentration response data were generated by measuring the difference in the steady-state amplitude of current in the presence of compound at the end of a 600 ms voltage-clamp step from a holding potential of −80 mV. The concentration-response data were fitted with Hill-type equations: […]
where I is the steady-state current at a given concentration of agonist [A]; and Imax, EC50 and nH are parameters estimated from the curve fit. In some cases the concentration-response data were fitted with equations consisting of the sum of two Hill-type components. Current-voltage (I/V) relationships for agonist-evoked currents were obtained by performing 600 ms voltage steps (−110 mV to +40 mV) in the absence and presence of agonist.

[1] = biological target: cloned mouse KCNQ2 (mKCNQ2) (Mus musculus, UniProt Q9Z351); experiment: KCNQ oocyte two-electrode voltage clamp, whole-cell outward current; format: cell-based; conditions: 10 μM; single holding potential (−40 μM [sic]); Xenopus oocytes
cloned mouse KCNQ2 (mKCNQ2), sequence (Q9Z351 whole entry): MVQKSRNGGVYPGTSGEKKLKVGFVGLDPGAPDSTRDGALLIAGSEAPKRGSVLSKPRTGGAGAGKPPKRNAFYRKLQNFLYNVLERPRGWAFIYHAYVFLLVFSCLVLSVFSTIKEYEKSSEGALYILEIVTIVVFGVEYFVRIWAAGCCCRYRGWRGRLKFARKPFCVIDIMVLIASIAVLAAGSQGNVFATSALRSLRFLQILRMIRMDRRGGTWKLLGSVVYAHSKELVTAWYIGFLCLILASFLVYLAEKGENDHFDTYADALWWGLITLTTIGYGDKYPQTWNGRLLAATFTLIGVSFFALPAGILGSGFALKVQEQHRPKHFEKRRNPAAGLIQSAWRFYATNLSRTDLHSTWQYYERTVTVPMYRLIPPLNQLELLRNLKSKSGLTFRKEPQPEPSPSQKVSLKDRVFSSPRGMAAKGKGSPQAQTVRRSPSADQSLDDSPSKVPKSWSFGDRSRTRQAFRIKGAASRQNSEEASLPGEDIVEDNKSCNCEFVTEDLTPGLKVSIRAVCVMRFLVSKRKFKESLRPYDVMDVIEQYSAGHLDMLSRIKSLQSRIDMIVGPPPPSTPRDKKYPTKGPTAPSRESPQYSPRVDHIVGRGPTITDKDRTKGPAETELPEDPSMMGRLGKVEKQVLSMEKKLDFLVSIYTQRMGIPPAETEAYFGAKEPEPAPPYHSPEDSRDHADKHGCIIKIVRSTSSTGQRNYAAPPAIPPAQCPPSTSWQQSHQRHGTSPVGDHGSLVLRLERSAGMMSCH
Experimental: The ability of compounds described in the present invention to open KCNQ channels and increase whole-cell outward (K^+) KCNQ-mediated currents was assessed under voltage-clamp conditions by determining their ability to increase cloned mouse KCNQ2 (mKCNQ2)-mediated, heteromultimeric KCNQ2/3 (mKCNQ2/hKCNQ3)-mediated, and human KCNQ5 (hKCNQ5)-mediated outward currents heterologously expressed in Xenopus oocytes. Oocytes were prepared and injected using standard techniques; each oocyte was injected with approximately 50 nl of mKCNQ2, or hKCNQ5 cRNA. In the case of mKCNQ2/h3 heteromultimeric channel expression, equal amounts (25-50 nL) of each cRNA were co-injected. […] Following injection, oocytes were maintained at 17° in ND96 medium consisting of (in mM): NaCl, 90; KCl, 1.0; CaCl2, 1.0; MgCl2, 1.0; HEPES, 5.0; pH 7.5. Horse serum (5%) and penicillin/streptomycin (5%) were added to the incubation medium. Recording commenced 2-6 days following mRNA injection. Prior to the start of an experiment oocytes were placed in a recording chamber and incubated in Modified Barth's Solution (MBS) consisting of (in mM): NaCl, 88; NaHCO3, 2.4; KCl, 1.0; HEPES, 10; MgSO4, 0.82; Ca(NO3)2, 0.33; CaCl2, 0.41; pH 7.5.
Oocytes were impaled with electrodes (1-2 MΩ) and standard 2-electrode voltage clamp techniques were employed to record whole-cell membrane currents. Recordings were accomplished using standard two-electrode voltage clamp techniques [Stuhmer, W., et al., Methods in Enzymology, Vol. 207: 319-339 (1992)]. Voltage-clamp protocols typically consisted of a series of voltage steps 1-5 sec duration, in +10 mV steps from a holding potential of −90 mV to a maximal potential of +40 mV; records were digitized at 5 kHz and stored on a computer using pClamp data acquisition and analysis software (Axon Instruments). Compounds were evaluated at a single concentration and at a single holding potential (−40 μM); the effect of the selected compounds of Formula I on KCNQ2 current was expressed as the percent of control current and is listed in Table I.

[2] = test system: streptozoticin-induced tactile allodynia, Sprague Dawley rats; experiment: Diabetic model of neuropathic pain (streptozoticin and von Frey test); format: in vivo, rat; conditions: 10 mg/kg, i.v.; von Frey thresholds over 90 min; STZ diabetic model
Experimental: To test agents for activity against systemic polyneuropathy nerve injury-induced tactile allodynia, animals were treated with streptozoticin (STZ) to create a diabetic condition by selective cytotoxic action upon pancreatic β-islet cells that produce insulin following the method of Courteix, et al. (Courteix C., et al., (1993) Pain, April;53(1):81-8). In brief, male Sprague Dawley rats (wt. 200-275 g) received an injection of STZ (75 mg/kg, i.p.) and diabetes was confirmed three weeks after STZ injection by measurement of tail vein blood glucose levels. After 3-4 weeks, paw withdrawal to light touch was assessed as described by Chaplan et al. (Chaplan S. R., et al., (1994) J Neurosci Methods, July;53(1):55-63). In brief, rats are placed in a plastic cage with a wire mesh bottom and allowed to acclimate for 15-30 minutes, until cage exploration and grooming stops. The plantar surface of each hind paw is touched with a series of von Frey hairs with varying stiffness requiring a known force to buckle to determine the nociceptive threshold. Adult male Sprague Dawley rats (avg. wt. 300 g) were tested in the present study. After acclimation, baseline von Frey thresholds were assessed for the injured hindpaw at -15 min. All test compounds were delivered at 0 min by the intravenous (i.v.) route in a volume of 0.5-2 ml/kg. […] Animals were tested in one of the following 4 treatment conditions: […] Following drug administration, von Frey thresholds are measured at 15, 30, 60 and 90 min. Data were analyzed by a 2-way repeated measures analysis of variance followed by Dunnett's test (p<0.05). Experimenters were kept blind to the treatment condition of rats they tested. […] Specifically, drug effects can be described in terms Δ% MPE according to the following equation: {[…] under the curve for von Frey thresholds of the drug-treated group; AUCvehicle=area under the curve for von Frey thresholds in the vehicle group; Time=duration of post-drug testing period (90 min); and Max=maximum von Frey threshold (15 g).

T1 sequence (Q9Z351 whole entry): as above

Row | activity at 10 µM [1] [%] | SMILES | EC50 (mKCNQ2 channels) [µM] | Emax (mKCNQ2 channels; HEK293, read-out: Imax (%)) [%] | AUC (Δ% MPE) [2]
1 |  | C[C@H](NC(=O)/C=C/c1ccc(F)cc1)c1ccc2ccccc2c1 [Example 1, (S)-3-(4-Fluoro-phenyl)-N-(1-naphthalen-2-yl-ethyl)acrylamide] | 9.2 | 237 | 
2 | 197 | C[C@H](NC(=O)/C=C/c1ccccc1)c1cccc(N2CCOCC2)c1 [Example 82, (S)-3-Phenyl-N-[1-(3-morpholin-4-yl-phenyl)ethyl]acrylamide] |  |  | 23 (10 mg/kg, i.v.) Δ% MPE
3 |  | C[C@H](NC(=O)/C=C/c1ccc(F)cc1)c1ccc(F)c(N2CCOCC2)c1 [Example 169, (S)-N-[1-(4-Fluoro-3-morpholin-4-yl-phenyl)-ethyl]-3-(4-fluoro-phenyl)-acrylamide] | 1 |  | 12 (10 mg/kg, i.v.) Δ% MPE
